Test results: patent US10870647B2, “Imidazopyridine derivative, method for preparing same, and pharmaceutical composition containing same as active ingredient for preventing or treating cancer” (DAEGU-GYEONGBUK MEDICAL INNOVATION FOUNDATION, priority 2016, dated 2020)

Columns and labels:
Assay in all cases: Kinase selectivity, scanMAX Kinase assay panel (DiscoverX), % control at 1 uM
Type in all cases: binding
[1] = biological target: T1, scanMAX Kinase assay panel (Homo sapiens, UniProt O00329); conditions: PIK3CD; 1 uM; read-out: Percent Control (%)
T1 construct: purchased DiscoverX
T1 sequence (O00329 1-1044): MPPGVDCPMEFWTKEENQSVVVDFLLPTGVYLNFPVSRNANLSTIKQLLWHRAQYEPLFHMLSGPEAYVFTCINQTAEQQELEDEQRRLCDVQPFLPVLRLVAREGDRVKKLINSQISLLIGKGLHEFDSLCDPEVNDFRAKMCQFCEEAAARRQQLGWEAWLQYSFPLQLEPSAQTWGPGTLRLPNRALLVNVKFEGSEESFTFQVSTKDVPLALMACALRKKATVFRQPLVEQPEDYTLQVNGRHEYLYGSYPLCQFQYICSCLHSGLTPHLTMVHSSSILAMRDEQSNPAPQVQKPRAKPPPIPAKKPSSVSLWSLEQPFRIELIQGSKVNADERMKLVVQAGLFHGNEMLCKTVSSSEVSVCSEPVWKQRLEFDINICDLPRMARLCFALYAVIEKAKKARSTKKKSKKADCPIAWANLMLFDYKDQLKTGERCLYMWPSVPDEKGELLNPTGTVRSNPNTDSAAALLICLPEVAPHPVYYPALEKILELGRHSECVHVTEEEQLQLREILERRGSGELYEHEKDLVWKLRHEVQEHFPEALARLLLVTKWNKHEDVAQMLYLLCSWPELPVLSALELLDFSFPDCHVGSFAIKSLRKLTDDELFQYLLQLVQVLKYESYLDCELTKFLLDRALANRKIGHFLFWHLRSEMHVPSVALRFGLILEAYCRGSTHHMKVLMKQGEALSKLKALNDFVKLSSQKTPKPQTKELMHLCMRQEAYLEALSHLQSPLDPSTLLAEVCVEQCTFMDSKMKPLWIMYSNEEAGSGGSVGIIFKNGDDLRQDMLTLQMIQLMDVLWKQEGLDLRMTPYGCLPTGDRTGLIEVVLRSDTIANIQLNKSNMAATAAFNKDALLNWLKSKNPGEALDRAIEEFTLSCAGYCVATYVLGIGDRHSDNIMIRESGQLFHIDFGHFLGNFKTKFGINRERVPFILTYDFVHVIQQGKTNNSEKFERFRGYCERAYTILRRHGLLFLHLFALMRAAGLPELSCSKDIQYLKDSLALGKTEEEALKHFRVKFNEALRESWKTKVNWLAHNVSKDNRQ
Summary of the method: (§1)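 1 uM cpd (DMSO) per kinase; % ctrl = [cpd − pos ctrl]/[neg ctrl − pos ctrl] × 100; hit if <35.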

[2] = biological target: T2, scanMAX Kinase assay panel (Homo sapiens, UniProt P54753); conditions: EPHB3; 1 uM; read-out: Percent Control (%)
T2 construct: purchased DiscoverX
T2 sequence (P54753 34-998): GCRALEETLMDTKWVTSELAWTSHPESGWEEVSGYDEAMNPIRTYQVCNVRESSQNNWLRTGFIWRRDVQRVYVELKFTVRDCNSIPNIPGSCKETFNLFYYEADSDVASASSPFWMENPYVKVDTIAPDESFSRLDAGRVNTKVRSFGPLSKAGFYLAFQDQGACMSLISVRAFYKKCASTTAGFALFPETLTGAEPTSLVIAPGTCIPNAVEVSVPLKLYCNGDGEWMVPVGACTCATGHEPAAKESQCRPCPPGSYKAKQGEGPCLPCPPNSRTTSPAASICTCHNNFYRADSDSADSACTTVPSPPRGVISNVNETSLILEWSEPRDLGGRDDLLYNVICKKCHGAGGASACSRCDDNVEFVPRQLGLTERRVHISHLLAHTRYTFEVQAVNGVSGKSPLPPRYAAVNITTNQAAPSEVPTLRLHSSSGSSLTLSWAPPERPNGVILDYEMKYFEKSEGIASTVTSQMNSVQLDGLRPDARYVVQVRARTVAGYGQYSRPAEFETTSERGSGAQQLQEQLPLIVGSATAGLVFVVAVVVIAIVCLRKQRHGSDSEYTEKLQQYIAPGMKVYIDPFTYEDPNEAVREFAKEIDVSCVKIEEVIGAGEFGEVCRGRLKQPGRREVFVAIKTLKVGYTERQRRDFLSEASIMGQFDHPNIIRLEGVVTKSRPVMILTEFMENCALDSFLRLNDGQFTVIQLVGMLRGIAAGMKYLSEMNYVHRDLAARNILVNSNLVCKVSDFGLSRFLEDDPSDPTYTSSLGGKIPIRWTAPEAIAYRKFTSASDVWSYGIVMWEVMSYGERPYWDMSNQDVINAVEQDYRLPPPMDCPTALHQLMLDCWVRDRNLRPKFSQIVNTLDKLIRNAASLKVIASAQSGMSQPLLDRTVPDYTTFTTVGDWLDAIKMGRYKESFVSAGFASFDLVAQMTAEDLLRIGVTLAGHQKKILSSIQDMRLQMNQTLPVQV
Summary of the method: as §1

[3] = biological target: T3, scanMAX Kinase assay panel (Homo sapiens, UniProt P08069); conditions: IGF1R; 1 uM; read-out: Percent Control (%)
T3 construct: purchased DiscoverX
T3 sequence (P08069 31-1367): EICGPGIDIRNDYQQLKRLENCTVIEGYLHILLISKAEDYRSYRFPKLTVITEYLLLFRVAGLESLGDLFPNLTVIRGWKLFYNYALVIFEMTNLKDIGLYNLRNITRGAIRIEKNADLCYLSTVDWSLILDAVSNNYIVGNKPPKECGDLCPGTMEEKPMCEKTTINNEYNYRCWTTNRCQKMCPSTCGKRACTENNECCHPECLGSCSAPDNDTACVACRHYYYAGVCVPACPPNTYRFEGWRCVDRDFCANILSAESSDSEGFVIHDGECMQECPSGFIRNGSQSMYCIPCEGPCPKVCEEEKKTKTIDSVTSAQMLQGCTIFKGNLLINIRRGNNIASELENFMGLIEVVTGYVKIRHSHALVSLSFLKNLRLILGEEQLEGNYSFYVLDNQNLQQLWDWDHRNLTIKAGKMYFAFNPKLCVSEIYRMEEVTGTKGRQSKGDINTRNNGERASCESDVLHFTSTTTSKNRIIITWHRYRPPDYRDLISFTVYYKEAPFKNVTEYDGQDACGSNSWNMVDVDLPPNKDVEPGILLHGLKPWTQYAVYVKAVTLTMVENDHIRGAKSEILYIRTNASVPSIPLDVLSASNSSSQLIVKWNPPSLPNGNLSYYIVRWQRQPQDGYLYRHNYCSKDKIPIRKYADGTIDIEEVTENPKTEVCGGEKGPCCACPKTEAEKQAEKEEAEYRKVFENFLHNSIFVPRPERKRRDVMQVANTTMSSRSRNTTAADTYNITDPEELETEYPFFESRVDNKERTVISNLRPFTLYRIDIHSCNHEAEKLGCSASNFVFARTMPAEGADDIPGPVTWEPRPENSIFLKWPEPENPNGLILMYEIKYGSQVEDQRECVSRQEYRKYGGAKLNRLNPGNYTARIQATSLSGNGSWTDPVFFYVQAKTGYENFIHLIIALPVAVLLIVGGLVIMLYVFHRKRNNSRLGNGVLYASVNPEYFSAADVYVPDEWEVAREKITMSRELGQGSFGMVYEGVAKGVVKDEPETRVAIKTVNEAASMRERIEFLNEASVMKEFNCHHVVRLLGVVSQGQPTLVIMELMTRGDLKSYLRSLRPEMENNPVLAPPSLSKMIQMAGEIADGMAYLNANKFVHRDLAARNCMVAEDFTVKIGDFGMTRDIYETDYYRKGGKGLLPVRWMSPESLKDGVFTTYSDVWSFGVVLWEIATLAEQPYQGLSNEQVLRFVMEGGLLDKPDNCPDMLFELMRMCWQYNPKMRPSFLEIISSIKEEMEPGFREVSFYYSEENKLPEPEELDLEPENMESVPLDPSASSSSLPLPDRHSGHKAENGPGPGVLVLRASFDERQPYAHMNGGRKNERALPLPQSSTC
Summary of the method: as §1

[4] = biological target: T4, scanMAX Kinase assay panel (Homo sapiens, UniProt P11309); conditions: PIM1; 1 uM; read-out: Percent Control (%)
T4 construct: purchased DiscoverX
T4 sequence (P11309 whole entry): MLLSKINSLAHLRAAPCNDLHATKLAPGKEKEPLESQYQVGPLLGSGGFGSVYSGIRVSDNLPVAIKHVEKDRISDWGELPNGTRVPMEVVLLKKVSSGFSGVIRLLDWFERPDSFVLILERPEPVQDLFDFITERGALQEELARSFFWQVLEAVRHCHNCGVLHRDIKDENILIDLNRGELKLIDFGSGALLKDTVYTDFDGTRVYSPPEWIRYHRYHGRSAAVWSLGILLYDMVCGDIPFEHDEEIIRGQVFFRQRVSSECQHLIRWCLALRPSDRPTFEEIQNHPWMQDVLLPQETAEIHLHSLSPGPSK
Summary of the method: as §1

## Cc1ccc(C(=O)Nc2ccc(CN3CCN(C)CC3)c(C(F)(F)F)c2)cc1C#Cc1cnc2c(Nc3cnn(C)c3)cccn12 [Example 1, 4-methyl-3-((8-((1-methyl-1H-pyrazol-4-yl)amino)imidazo[1,2-a]pyridin-3-yl)ethynyl)-N-(4-((4-methylpiperazin-1-yl)methyl)-3-(trifluoromethyl)phenyl)benzamide]
[1]
  remaining binding at 1 µM: 89%
[2]
  remaining binding at 1 µM: 47%
[3]
  remaining binding at 1 µM: 56%
[4]
  remaining binding at 1 µM: 82%

## Cc1cn(-c2cc(NC(=O)c3ccc(C)c(C#Cc4cnc5c(Nc6cnn(C)c6)cccn45)c3)cc(C(F)(F)F)c2)cn1 [Example 12, 4-methyl-N-(3-(4-methyl-1H-imidazol-1-yl)-5-(trifluoromethyl)phenyl)-3-((8-((1-methyl-1H-pyrazol-4-yl)amino)imidazo[1,2-a]pyridin-3-yl)ethynyl)benzamide]
[1]
  remaining binding at 1 µM: 100%
[2]
  remaining binding at 1 µM: 100%
[3]
  remaining binding at 1 µM: 100%
[4]
  remaining binding at 1 µM: 92%

## Cc1ccc(NC(=O)C2(C(=O)Nc3ccc(F)cc3)CC2)cc1C#Cc1cnc2c(Nc3cnn(C(C)C)c3)cccn12 [Example 78]
[1]
  remaining binding at 1 µM: 100%
[2]
  remaining binding at 1 µM: 100%
[3]
  remaining binding at 1 µM: 100%
[4]
  remaining binding at 1 µM: 100%
